Test system: triple-negative breast tumors
Assay: clinical trial of Cisplatin treatment of patients with triple-negative breast tumors (GSE28330)
Assay type: in vivo, human
Settings: number of patients
Description: Two publically available data sets from clinical trial of Cisplatin treatment of patients with triple-negative breast tumors [GSE28330 GEO database][59] were processed and the number of LST_10 Mb was calculated for each tumor with good quality of measured profile. Genomic profiles were measured by two types of chip: Affymetrix Oncoscan 70K (Dataset 2) and Oncoscan 300K (Dataset 1). Information about mutational status of BRCA1/2 was available for some tumors. Response to treatment was measured by Miller-Payne score, where 4 and 5 were considered as “positive response”, while scores<4 were considered as “no response” Case by case and summary results are presented in Table 2 and Tables 3-5 (statistical comparisons were performed by the Fisher exact test).

For `N.N.[Cl][Pt][Cl]` [Cisplatin, cisplatin], the “Non Responders” value (BRCA1/2 inactivated tumors) was 8, the Responders (BRCA1/2 inactivated tumors) was 9 and the “Non Responders” value (LST_high tumors (LST_10 Mb)) was 15. For the same molecule, the Responders (LST_high tumors (LST_10 Mb)) was 18, the “Non Responders” value (LST_low tumors (LST_10 Mb)) was 20 and the Responders (LST_low tumors (LST_10 Mb)) was 1. The “Non Responders” value (NON BRCA1/2 or NA tumors) was 27 and the Responders (NON BRCA1/2 or NA tumors) was 10.
